{"source": "patent US5827837A", "about": "“Polyanion anti-inflammatory agents” (priority 1996, dated 1998)", "key": {"[1]": {"system": "PMN recovered in broncho-alveolar lavage fluid", "assay": "Lung inflammation by intratracheal instillation of endotoxin, PMN in broncho-alveolar lavage fluid", "format": "in vivo", "conditions": "rat, i.v. at 2 and 4 hours, 40 μmol/kg total, at 6 hours, 2 experiments", "text": "(§1) In the first model, mice were given intraperitoneal (i.p.) injections of 3% thioglycollate broth (FIG. 4, left panel) which results in an accumulation of PMN, the early phase of which is thought to depend in large part on L-(Lewinsohn, D. M., et al., J. Immunol., 138:4313, 1987; Watson, S. R., et al., Nature, 349:164, 1991), and P-selectin (Mulligan, M. S., et al., J. Clin. Invest., 90:1600, 1992). […] In a rat model of lung inflammation involving intratracheal instillation of endotoxin (Ulich, T. R., et al., Am. J. Pathol, 138:1485, 1991), InsP6 (i.v. injections at 2 and 4 hours, 40 μmol/kg total) reduced the number of PMN recovered in broncho-alveolar lavage fluid at 6 hours (59±8% inhibition, 2 experiments). The number of peripheral blood PMN was not modified by InsP6 treatment."}, "peripheral blood PMN": {"system": "peripheral blood PMN", "assay": "Number of peripheral blood PMN", "conditions": "in vivo", "text": "as §1"}, "E-selectin (E-COS) [2]": {"system": "E-selectin (E-COS)", "assay": "PMN adhesion to E-selectin transfected COS cells (E-COS)", "format": "cell-based, human", "conditions": "0.5 mM", "protocol": "(§2) COS-1 cells were transfected as described (Seed, B., et al., Proc. Natl. Acad. Sci., U.S.A., 84:3365, 1987; Aruffo, A., Current Protocols In Molecular Biology, eds. supra, 1992) with pCDM7/pCDM8 expression vectors containing the full-length E-, P- and L-selectin cDNA. Transfected COS-1 cells were seeded on gelatin coated coverslips."}, "E-selectin (E-COS) [3]": {"system": "E-selectin (E-COS)", "assay": "LS 180 cell adhesion to COS cells transfected with full length E-selectin (E-COS)", "format": "cell-based", "conditions": "0.5 mM", "protocol": "(§3) The effect of inositols on selectin-dependent cell adhesion was assessed using several in vitro assay systems. In the first, a colon cancer cell line, LS 180, was chosen because it binds to all three selecting.\nas §2"}, "neutrophils": {"system": "neutrophils", "conditions": "cited from earlier work"}, "[4]": {"system": "Human umbilical vein endothelial cells (HUVEC)", "assay": "PMN adhesion to TNF-activated endothelial monolayers (HUVEC)", "format": "cell-based", "conditions": "InsP6 0.5 mM", "protocol": "Human umbilical vein endothelial cells (HUVEC, Clonetics Corp., San Diego, Calif.) were grown to confluence with 2.2 cm diameter circles made on glass slides with a grease pencil as previously described (Spertini, O., et al., J. Immunol., 147:2565, 1991), and activated for 6-8 hours at […] with 200 U/ml of human recombinant TNFα (Biogen Res. Corp., Cambridge, Mass.). Human PMN (2×10^6) were allowed to adhere to these endothelial monolayers for 30 min at 4° C. under static (stationary platform; upper panel) and non-static (rotating platform, 64 r.p.m.; lower panel) conditions. To determine adhesion blocking activity, PMN were incubated in 5% FBS in RPMI 1640 alone or containing inositol (0.5 mM), InsP6 (0.5 mM), or anti-L-selectin monoclonal antibody LAM 1.3 (10 μg/ml), for 30 min or ice prior to their addition to activated endothelial monolayers. In some experimental wells, endothelial monolayers were incubated with anti E-selectin monoclonal antibody, H18/7, for 30 min prior to addition of PMN. After washing to remove unbound PMN, cultures were fixed in PBS containing 2.5% glutaraldehyde and adherent PMN were counted microscopically. The data represent the mean ±s.e.m. of three separate experiments. Unblocked PMN adhesion to activated endothelial monolayers under static and non-static conditions ranged from 1800 to 2400 cells/mm^2. […]"}, "[5]": {"conditions": "mice and rats, high-dose (^18 600 μmol/kg), rate 60 μmol/kg/min or higher; cited from earlier work"}, "L-selectin (L-COS)": {"system": "L-selectin (L-COS)", "assay": "LS 180 cell adhesion to COS cells transfected with full length L-selectin (L-COS)", "format": "cell-based", "conditions": "0.5 mM, 2 experiments", "protocol": "as §3, §2"}, "[6]": {"biological_target": "T1, E-selectin-lg fusion protein (Homo sapiens, UniProt P16581)", "T1 construct": "Each selectin-lg contains the lectin domain, epidermal growth factor domain, and one (L-selectin-lg), two (P-selectin-lg) or six (E-selectin-lg) complement regulatory repeats; made in house", "T1 sequence (P16581 with tags, fused parts or gaps limits assumed)": "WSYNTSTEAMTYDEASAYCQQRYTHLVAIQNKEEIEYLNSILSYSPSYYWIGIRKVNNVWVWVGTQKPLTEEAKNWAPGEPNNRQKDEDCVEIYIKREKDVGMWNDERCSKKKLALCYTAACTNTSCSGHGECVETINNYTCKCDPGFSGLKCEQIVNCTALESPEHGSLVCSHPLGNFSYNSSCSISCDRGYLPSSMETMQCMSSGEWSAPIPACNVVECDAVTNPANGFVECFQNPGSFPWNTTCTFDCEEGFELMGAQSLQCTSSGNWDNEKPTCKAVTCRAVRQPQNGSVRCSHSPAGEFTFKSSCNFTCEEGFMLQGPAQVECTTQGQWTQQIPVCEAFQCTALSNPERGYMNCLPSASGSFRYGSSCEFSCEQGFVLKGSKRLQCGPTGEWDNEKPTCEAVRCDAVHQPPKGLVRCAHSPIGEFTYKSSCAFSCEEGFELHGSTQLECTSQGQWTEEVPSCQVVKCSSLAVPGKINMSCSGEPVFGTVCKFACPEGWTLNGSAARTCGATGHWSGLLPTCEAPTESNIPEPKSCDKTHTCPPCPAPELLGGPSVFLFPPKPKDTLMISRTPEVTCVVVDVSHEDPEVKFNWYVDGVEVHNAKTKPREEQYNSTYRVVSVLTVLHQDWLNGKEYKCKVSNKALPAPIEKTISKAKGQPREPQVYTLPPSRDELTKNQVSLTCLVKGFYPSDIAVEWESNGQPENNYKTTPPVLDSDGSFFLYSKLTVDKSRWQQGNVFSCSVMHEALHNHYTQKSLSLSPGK", "assay": "LS 180 colon cancer cell adhesion to immobilized E-selectin-Ig", "format": "cell-based", "protocol": "Cell adhesion assays on immobilized selectin-lg were performed essentially as described (Nelson, R. M., et al., J. Clin. Invest., 91:1157, 1993; Nelson, R. M., et al., Symposia on Quant. Biol., 57:271, 1992). Briefly, Nunclon Terasaki Microwell plates were coated overnight with 5 μl/well of a 5 μg/ml solution of protein A (Chemicon, Temecula, Calif.) in 50 mM carbonate buffer, pH 9.5. Protein-A-coated plates were washed with Dulbecco's phosphate buffered saline (PBS), incubated for 1 hour with L-, P-, or E-selectin-lg fusion proteins in PBS (5-20 μg/ml), washed again, and blocked with PBS containing 1% human serum albumin (HSA). […] After washing to remove unbound cells, adherent cells were fixed with glutaraldehyde (2.5% in PBS) and counted. Symbols and error bars represent mean number of adherent cells/mm^2 ±s.e.m., counted in quadruplicate wells in a single experiment representative of three. No LS 180 cell adhesion was detected on plates coated with protein A alone, or on plates coated with protein A-captured CD8-lg fusion protein.\nLS 180 cells (ATCC, Rockville, Md.) were added to cell culture wells containing protein A-captured selectin-lg fusion proteins and incubated for 30 min at 4° C. to allow adhesion. The plates were washed to remove unbound cells and adherent cells were counted microscopically. […]"}, "hemoglobin": {"system": "hemoglobin", "conditions": "in vitro; cited from earlier work"}, "[7]": {"assay": "Toxic effects after injection, applicant's studies", "format": "in vivo"}}}
{"smiles": "O=P(O)(O)O[C@H]1[C@H](OP(=O)(O)O)[C@@H](OP(=O)(O)O)[C@H](OP(=O)(O)O)[C@@H](OP(=O)(O)O)[C@H]1OP(=O)(O)O", "note": "[InsP6, myo-inositol hexakisphosphate]", "values": [{"measurement": "inhibition of PMN recovered in broncho-alveolar lavage fluid", "setting": "[1]", "value": "59±8", "unit": "%"}, {"measurement": "number of peripheral blood PMN", "setting": "peripheral blood PMN", "value": "not modified"}, {"measurement": "PMN adhesion to E-COS", "setting": "E-selectin (E-COS) [2]", "value": "not to E-COS"}, {"measurement": "inhibition of LS 180 cell adhesion to E-COS", "setting": "E-selectin (E-COS) [3]", "value": "< 5", "unit": "%"}, {"measurement": "effect on neutrophil responses to activating stimuli", "setting": "neutrophils", "value": "enhance their responses to activating stimuli"}, {"measurement": "PMN adhesion to TNF-activated endothelial cells, non-static", "setting": "[4]; non-static conditions (rotation-induced shear stress, 64 r.p.m.)", "value": "blocked the adhesion of PMN"}, {"measurement": "PMN adhesion to TNF-activated endothelial cells, static", "setting": "[4]; static conditions", "value": "little or no effect"}, {"measurement": "acute toxic effects, i.v. infusion", "setting": "[5]", "value": "acute toxic effects"}, {"measurement": "inhibition of LS 180 cell adhesion to L-COS", "setting": "L-selectin (L-COS)", "value": "81±13", "unit": "%"}, {"measurement": "LS 180 adhesion to E-selectin-Ig", "setting": "[6]", "value": "but not with E-selectin-lg"}, {"measurement": "allosteric regulation of mammalian hemoglobin", "setting": "hemoglobin", "value": "effective allosteric regulator of mammalian hemoglobin in vitro"}, {"measurement": "toxic effects at decreased infusion rate and lower doses", "setting": "[7]; 40 μmol/kg, decreased rate of infusion", "value": "These effects were avoided"}, {"measurement": "duration of transient toxic effects", "setting": "[7]; rapid i.v. (5-10 sec), >50 μmol/kg", "value": "1 to 3", "unit": "min"}, {"measurement": "toxic effects upon rapid i.v. injection", "setting": "[7]; rapid i.v. (5-10 sec), concentrated solutions >50 μmol/kg", "value": "some transient (duration 1-3 min) toxic effects (unsteady gate, spasms)"}, {"measurement": "harmful effect on repeated protocol", "setting": "[7]; repeated multiple times in the same animal, 40 μmol/kg", "value": "without apparent harmful effect"}, {"measurement": "toxic effects, subcutaneous", "setting": "[7]; s.c., doses up to 200 μmol/kg", "value": "no toxic effects were observed"}]}
